Type in all cases: biochemical
One assay concerns the target B-Raf (V600E) (Homo sapiens (Human), UniProt P15056, V600E). Put plainly: Raf kinase assay (B-Raf (V600E)), [33P] incorporation into MEK1(K97R). As to the method: (§1) A. Raf Kinase Assays (B-Raf, B-raf (V600E), and C-Raf)
(§2) Inhibition of kinase activity by test compound disclosed herein was estimated by quantifying the amount of [^33P] incorporation of substrate in the presence of test compound. Standard assay conditions were 2 ng of recombinant C-Raf or 5 ng of recombinant B-Raf or 5 ng of recombinant B-Raf (V600E) kinase (Upstate Biotechnology) with 500 ng MEK1(K97R) in assay buffer {8 μM ATP, 0.5 μCi [^33P]ATP (specific activity 3000 Ci/mmol, PerkinElmer), 50 mM Tris/HCl (pH7.5), and 1 mM EGTA, 1 mM Na3VO4, 1% 2-mercaptoethanol, 0.1% Brij 35, and 0.2 mg/ml BSA} at a final volume of 25 μL. Reactions were incubated at 30° C. for 30 min and stopped by adding 3% phosphoric acid, harvested onto a 96-well GF/B UniFilter (PerkinElmer) using a unifilter harvester (PerkinElmer), and counted with a TopCount microplate scintillation counter (PerkinElmer). The IC50 values of inhibitors were determined after carrying out assays at 3-fold serially diluted concentrations of each compound in duplication. The results were analyzed using linear regression software (GraphPad Prism 4; GraphPad Software Inc.). Inhibition of B-Raf, B-raf (V600E), and C-Raf kinases by various compounds listed in Table 1 are summarized and shown in Table 3 below. IC50 value is defined as the concentration of the test compound which achieves a half-maximal inhibition of the kinase activity.

The target in a further assay is C-Raf (Homo sapiens (Human), UniProt P04049). In words: Raf kinase assay (C-Raf), [33P] incorporation into MEK1(K97R). As to the method: as §1, §2
The target in another assay is B-Raf (Homo sapiens (Human), UniProt P15056). In words: Raf kinase assay (B-Raf), [33P] incorporation into MEK1(K97R). To be noted: for inhibition at 1 µM: read-out: B-Raf inhibition at 1.0 μM. As for the experimental part:
as §1, §2

Where two headings read alike, the source gives them in different places.

For orientation: IC50 means the concentration needed to halve the response being measured. As a reminder, the inhibition is the change of the read-out against control, counted positive when it falls.

B-Raf (V600E), sequence (P15056 whole entry V600E): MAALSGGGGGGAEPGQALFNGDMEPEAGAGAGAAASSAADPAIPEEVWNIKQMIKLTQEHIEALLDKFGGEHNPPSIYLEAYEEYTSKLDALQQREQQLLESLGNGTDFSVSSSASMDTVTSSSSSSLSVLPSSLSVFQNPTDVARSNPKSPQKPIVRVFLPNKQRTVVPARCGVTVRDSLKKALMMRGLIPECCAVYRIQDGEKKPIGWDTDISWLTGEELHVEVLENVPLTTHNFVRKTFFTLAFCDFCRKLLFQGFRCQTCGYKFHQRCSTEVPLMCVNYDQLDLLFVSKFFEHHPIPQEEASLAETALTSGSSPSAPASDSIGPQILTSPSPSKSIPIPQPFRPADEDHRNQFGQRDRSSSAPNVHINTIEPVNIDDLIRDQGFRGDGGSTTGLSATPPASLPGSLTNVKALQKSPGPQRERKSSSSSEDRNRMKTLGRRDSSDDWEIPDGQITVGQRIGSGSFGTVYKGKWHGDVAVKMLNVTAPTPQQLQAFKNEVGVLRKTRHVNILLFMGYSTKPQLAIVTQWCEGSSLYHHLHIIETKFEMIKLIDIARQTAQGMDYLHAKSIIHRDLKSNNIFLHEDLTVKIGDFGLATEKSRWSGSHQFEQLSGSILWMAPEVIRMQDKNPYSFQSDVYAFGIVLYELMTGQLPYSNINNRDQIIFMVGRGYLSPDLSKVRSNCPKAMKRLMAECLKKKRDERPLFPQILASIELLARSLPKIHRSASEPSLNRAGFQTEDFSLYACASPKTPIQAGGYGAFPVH
B-Raf, sequence (P15056 whole entry): as the sequence (P15056 whole entry V600E) above, with E600V counted along it
C-Raf, sequence (P04049 whole entry): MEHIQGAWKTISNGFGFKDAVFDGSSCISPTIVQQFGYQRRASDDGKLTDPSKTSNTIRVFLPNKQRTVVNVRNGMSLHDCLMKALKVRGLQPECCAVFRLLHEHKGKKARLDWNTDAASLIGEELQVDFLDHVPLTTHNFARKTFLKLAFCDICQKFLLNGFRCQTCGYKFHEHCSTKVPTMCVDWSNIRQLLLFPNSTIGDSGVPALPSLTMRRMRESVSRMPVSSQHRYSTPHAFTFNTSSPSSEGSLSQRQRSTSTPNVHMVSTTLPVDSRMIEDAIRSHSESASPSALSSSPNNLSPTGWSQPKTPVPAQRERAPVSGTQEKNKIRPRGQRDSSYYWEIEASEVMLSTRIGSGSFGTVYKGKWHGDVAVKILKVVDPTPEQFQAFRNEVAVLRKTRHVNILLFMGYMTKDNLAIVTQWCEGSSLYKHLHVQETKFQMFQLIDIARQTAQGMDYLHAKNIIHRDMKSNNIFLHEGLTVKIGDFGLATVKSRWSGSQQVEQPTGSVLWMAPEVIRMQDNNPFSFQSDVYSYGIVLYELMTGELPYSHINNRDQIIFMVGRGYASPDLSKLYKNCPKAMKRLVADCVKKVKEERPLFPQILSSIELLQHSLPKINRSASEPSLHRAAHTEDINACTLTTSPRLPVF

In the case of `COc1cc(-c2ccc3ncnc(Nc4ccccc4O)c3c2)ccc1O` [Compound 23, 4-(4-(2-hydroxyphenylamino)quinazolin-6-yl)-2-methoxyphenol], the IC50 was determined as 377 nM against B-Raf (V600E), 3090 nM against C-Raf and 669 nM at B-Raf. The inhibition at 1 µM at B-Raf (1.0 μM compound) is 62.6%. `CCS(=O)(=O)Nc1ccc(-c2ccc3ncnc(Nc4ccccc4)c3c2)cc1` [Compound 24, N-(4-(4-(phenylamino)quinazolin-6-yl)phenyl)ethanesulfonamide]: the results for the IC50 at B-Raf (V600E) and against B-Raf were 1810 nM and 1700 nM, respectively. Moreover, the inhibition at 1 µM at B-Raf (1.0 μM compound) is 48.6%. `COc1cc(-c2ccc3ncnc(Nc4ccccc4C(=O)O)c3c2)ccc1O` [Compound 50, 2-(6-(4-hydroxy-3-methoxyphenyl)quinazolin-4-ylamino)benzoic acid]: the inhibition at 1 µM at B-Raf (1.0 μM compound) was 15.6%. With `COc1ccc(C(=O)O)c(Nc2ncnc3ccc(-c4ccc(O)c(OC)c4)cc23)c1` [Compound 48, 2-(6-(4-hydroxy-3-methoxyphenyl)quinazolin-4-ylamino)-4-methoxybenzoic acid], at B-Raf (1.0 μM compound), the inhibition at 1 µM amounted to 30.6%. The same measure, in the same setting: with `Fc1ccc(Nc2ncnc3ccc(-c4ccc5[nH]ncc5c4)cc23)cc1Cl` [Compound 142, N-(3-chloro-4-fluorophenyl)-6-(1H-indazol-5-yl)quinazolin-4-amine] the figure was 23.3%. On the same count and under the same terms, with `c1ccc(Nc2ncnc3ccc(-c4ccccc4)cc23)cc1` [Compound 132, N,6-diphenylquinazolin-4-amine] the figure was 22.4%. Take `COc1cc(-c2ccc3ncnc(Nc4ccc(Cl)cc4O)c3c2)ccc1O` [Compound 21, 4-(4-(4-chloro-2-hydroxyphenylamino)quinazolin-6-yl)-2-methoxyphenol]: the IC50 came out at 1360 nM on B-Raf (V600E), 810 nM against C-Raf and 1120 nM on B-Raf. The inhibition at 1 µM at B-Raf (1.0 μM compound) was 47.6%. Consider `COc1cc(-c2ccc3nccc(Nc4ccc(F)c(NS(C)(=O)=O)c4)c3c2)ccc1O` [Compound 145, N-(2-fluoro-5-(6-(4-hydroxy-3-methoxyphenyl)quinolin-4-ylamino)phenyl)methanesulfonamide], for which the inhibition at 1 µM at B-Raf (1.0 μM compound) came out at 7.5%. On the same count and under the same terms, with `COc1cc(-c2ccc3ncnc(Nc4cc(O)ccc4OC)c3c2)ccc1O` [Compound 55, 4-(4-(5-hydroxy-2-methoxyphenylamino)quinazolin-6-yl)-2-methoxyphenol] the figure was 38.1%; with `COc1cc(-c2ccc3ncnc(Nc4cccc(C(=O)O)c4)c3c2)ccc1O` [Compound 32, 3-(6-(4-hydroxy-3-methoxyphenyl)quinazolin-4-ylamino)benzoic acid], 34.7%; with `COc1cc(-c2ccc3ncnc(Nc4ccc(Cl)c(NS(C)(=O)=O)c4)c3c2)ccc1O` [Compound 140, N-(2-chloro-5-(6-(4-hydroxy-3-methoxyphenyl)quinazolin-4-ylamino)phenyl)methanesulfonamide], 24.3%. In the case of `COc1ccc(-c2ccc3ncnc(Nc4ccccc4)c3c2)cc1` [Compound 10, 6-(4-methoxyphenyl)-N-phenylquinazolin-4-amine], on B-Raf (1.0 μM compound), the inhibition at 1 µM turned out to be 15.8%.

As to `COc1cc(-c2ccc3ncnc(Nc4cccc(NS(=O)(=O)C(F)(F)F)c4)c3c2)ccc1O` [Compound 65, 1,1,1-trifluoro-N-(3-(6-(4-hydroxy-3-methoxyphenyl)quinazolin-4-ylamino)phenyl)methanesulfonamide], at B-Raf (1.0 μM compound), the inhibition at 1 µM turned out to be 40.4%. Still for that read-out and setting: with `COc1cc(-c2ccc3ncnc(Nc4ccc(OC)c(OC)c4)c3c2)ccc1O` [Compound 13, 4-(4-(3,4-dimethoxyphenylamino)quinazolin-6-yl)-2-methoxyphenol] the figure was 7.7%. Same read-out and setting: with `COc1cc(-c2ccc3ncnc(Nc4ccc(C(N)=O)cc4)c3c2)ccc1O` [Compound 47, 4-(6-(4-hydroxy-3-methoxyphenyl)quinazolin-4-ylamino)benzamide] the figure was 37.8%; with `COc1cc(-c2ccc3ncnc(Nc4ccc(F)c(NS(C)(=O)=O)c4)c3c2)ccc1O` [Compound 130, N-(2-fluoro-5-(6-(4-hydroxy-3-methoxyphenyl)quinazolin-4-ylamino)phenyl)methanesulfonamide], 44.1%. On the same count and under the same terms, to `COc1cc(-c2ccc3ncc(C#N)c(Nc4cccc5[nH]ncc45)c3c2)ccc1O` [Compound 135, 4-(1H-indazol-4-ylamino)-6-(4-hydroxy-3-methoxyphenyl)quinoline-3-carbonitrile] belongs 24%; to `COc1cc(-c2ccc3nccc(Nc4ccc(Cl)c(NS(C)(=O)=O)c4)c3c2)ccc1O` [Compound 141, N-(2-chloro-5-(6-(4-hydroxy-3-methoxyphenyl)quinolin-4-ylamino)phenyl)methanesulfonamide], 4.6%. For `COc1cc(-c2ccc3ncnc(Nc4ccc5cc[nH]c5c4)c3c2)ccc1O` [Compound 40, 4-(4-(1H-indol-6-ylamino)quinazolin-6-yl)-2-methoxyphenol], at B-Raf (1.0 μM compound), the inhibition at 1 µM is 32.2%. Same read-out and setting: to `O=S(=O)(Nc1ccc(-c2ccc3ncnc(Nc4ccccc4)c3c2)cc1)c1ccc(F)cc1` [Compound 70, 4-fluoro-N-(4-(4-(phenylamino)quinazolin-6-yl)phenyl)benzenesulfonamide] belongs -6.5%. Still for that read-out and setting: with `O=S(=O)(Nc1ccc(-c2ccc3ncnc(Nc4ccccc4)c3c2)cc1)c1ccccc1` [Compound 28, N-(4-(4-(phenylamino)quinazolin-6-yl)phenyl)benzenesulfonamide] the figure was 30.5%. For `CCNC(=O)Oc1ccc(-c2ccc3ncnc(Nc4ccccc4)c3c2)cc1OC` [Compound 9, 2-methoxy-4-(4-(phenylamino)quinazolin-6-yl)phenyl ethylcarbamate], the inhibition at 1 µM at B-Raf turned out to be 13.8%. Take `COc1cc(-c2ccc3ncnc(Nc4ccc(C(=O)O)cc4)c3c2)ccc1O` [Compound 57, 4-(6-(4-hydroxy-3-methoxyphenyl)quinazolin-4-ylamino)benzoic acid]: the inhibition at 1 µM on B-Raf (1.0 μM compound) came to 4.8%.

Take `COc1cc(-c2ccc3ncnc(Nc4c(C)ccc5[nH]ncc45)c3c2)ccc1O` [Compound 155, 2-methoxy-4-(4-(5-methyl-1H-indazol-4-ylamino)quinazolin-6-yl)phenol]: the inhibition at 1 µM on B-Raf (1.0 μM compound) turned out to be 8.2%. Take `COc1ccc(Nc2ncnc3cc(OC)c(-c4ccc(O)c(OC)c4)cc23)cc1O` [Compound 42, 4-(4-(3-hydroxy-4-methoxyphenylamino)-7-methoxyquinazolin-6-yl)-2-methoxyphenol]: the inhibition at 1 µM at B-Raf (1.0 μM compound) was 20.4%. The same measure, in the same setting: with `CCS(=O)(=O)Nc1ccc(-c2ccc3ncnc(Nc4cccc(NS(=O)(=O)CC)c4)c3c2)cc1` [Compound 26, N-(3-(6-(4-(ethylsulfonamido)phenyl)quinazolin-4-ylamino)phenyl)ethanesulfonamide] the figure was 45.7%. Take `COc1cc(-c2ccc3ncnc(Nc4ccccc4)c3c2)ccc1OC(=O)Nc1ccccc1` [Compound 7, 2-methoxy-4-(4-(phenylamino)quinazolin-6-yl)phenyl phenylcarbamate]: the inhibition at 1 µM on B-Raf is 23.5%. On to `CCNC(=O)Nc1ccc(-c2ccc3ncnc(Nc4ccccc4)c3c2)cc1` [Compound 12, 1-ethyl-3-(4-(4-(phenylamino)quinazolin-6-yl)phenyl)urea], for which the inhibition at 1 µM on B-Raf (1.0 μM compound) worked out at 18.2%.

For the molecule `COc1cc(-c2ccc3ncnc(Nc4cc(NS(C)(=O)=O)c(F)cc4F)c3c2)ccc1O` [Compound 150, N-(2,4-difluoro-5-(6-(4-hydroxy-3-methoxyphenyl)quinazolin-4-ylamino)phenyl)methanesulfonamide], on B-Raf (1.0 μM compound), the inhibition at 1 µM worked out at 37.2%.

On to `COc1cc(-c2ccc3ncnc(Nc4cc(NS(C)(=O)=O)ccc4Cl)c3c2)ccc1O` [Compound 139, N-(4-chloro-3-(6-(4-hydroxy-3-methoxyphenyl)quinazolin-4-ylamino)phenyl)methanesulfonamide], for which the inhibition at 1 µM at B-Raf (1.0 μM compound) turned out to be 25.8%.

Consider `C#Cc1cccc(Nc2ncnc3ccc(-c4ccc(OC)cc4)cc23)c1` [Compound 151, N-(3-ethynylphenyl)-6-(4-methoxyphenyl)quinazolin-4-amine], for which, at B-Raf (1.0 μM compound), the inhibition at 1 µM is -5.4%. On the same count and under the same terms, with `COc1cc(-c2ccc3ncnc(Nc4cccc5[nH]ccc45)c3c2)ccc1O` [Compound 83, 4-(4-(1H-indol-4-ylamino)quinazolin-6-yl)-2-methoxyphenol] the figure was 36.3%. Same read-out and setting: with `COc1cc(-c2cc3c(Nc4ccccc4)ncnc3cc2OC)ccc1O` [Compound 30, 2-methoxy-4-(7-methoxy-4-(phenylamino)quinazolin-6-yl)phenol] the figure was 10%. With `COc1cc(-c2ccc3ncnc(Nc4c(F)ccc5[nH]ncc45)c3c2)ccc1O` [Compound 149, 4-(4-(5-fluoro-1H-indazol-4-ylamino)quinazolin-6-yl)-2-methoxyphenol], the “B-Raf inhibition at 1.0 μM” value on B-Raf (1.0 μM compound) worked out at 15.2%.

As for `NC(=O)Nc1ccc(-c2ccc3ncnc(Nc4ccccc4)c3c2)cc1` [Compound 11, 1-(4-(4-(phenylamino)quinazolin-6-yl)phenyl)urea], on B-Raf (1.0 μM compound), the inhibition at 1 µM stood at 19.9%.

For the origin of these results see patent publication US8785459B2, “Quinazoline compounds as kinase inhibitors” (Development Center for Biotechnology, priority 2011, dated 2014).
